The subject of one test is AsPC-1. Description: Cytotoxic activity in vitro, SRB. In kind it is cell-based, human. How it is done:
(§1) Cytotoxic activity tests in-vitro. A measure of the cytotoxic activity of bis-acridines are the EC50 (concentration of studied compounds at which 50% inhibition of proliferation of tumorous is observed) of the evaluated compounds that inhibit the growth of 50% of cells in relation to a control. The cytotoxic activity of the compounds was determined using SRB, recommended by the US National Cancer Institute (USA). As the spectrum of 13 human origin neoplasms in bis-acridine screening studies, we used the following: HT 29 [CRC], HCT 116 [CRC], H 460 [lung cancer], MDA MB 231 [breast cancer], MCF-7 [breast cancer], UM UC3 [bladder cancer], PC 3 [prostate cancer], DU 145 [ prostate cancer], Panc-1 [pancreatic cancer], Mia Pa Ca 2 [pancreatic cancer], BXPC 3 [pancreatic cancer], AsPC1 [pancreatic cancer], Capan-2 [pancreatic cancer]. […] The DU-145 results were substantially a basis for selecting compounds and neoplasms for screening. The next neoplasms most sensitive to the cytotoxic activity of bis-acridines was the CRC HCT-116, as well as breast cancer MBA-MB-231. […] The cytotoxic activity of the remaining bis-acridines is significant or high (EC50 in the range from 1 to 0.04 μM). […] Panc-1, MiaPaCa-2 and Capan-2 are more sensitive, whereas for AsPC-1 and BxPC-3 this activity is at least an order of magnitude smaller.

In another test the test system is BxPC-3. As to the kind of experiment: Cytotoxic activity in vitro, SRB. Format: cell-based, human. How it is done:
as §1

The next test has as its system Capan-2. Description: Cytotoxic activity in vitro, SRB. In kind it is cell-based, human. How it is done:
as §1

The subject of the next test is DU-145. Description: Cytotoxic activity in vitro, SRB. Format: cell-based, human. How it is done:
as §1

The next test has as its system HCT-116. As to the kind of experiment: Cytotoxic activity in vitro, SRB. Format: cell-based, human. As for the experimental part:
as §1

The subject of the next test is MCF-7. As to the kind of experiment: Cytotoxic activity in vitro, SRB. Format: cell-based, human. How it is done: as §1
A further test concerns MDA-MB-231. Description: Cytotoxic activity in vitro, SRB. Format: cell-based, human. As for the experimental part: as §1
A further test has as its system MiaPaCa-2. Description: Cytotoxic activity in vitro, SRB. In kind it is cell-based, human. How it is done:
as §1

For another test, the system named is PANC-1. As to the kind of experiment: Cytotoxic activity in vitro, SRB. In kind it is cell-based, human. As for the experimental part: as §1
A further test concerns PANC 1. As to the kind of experiment: Anti-neoplasmic activity against xenograft in hairless mice. Format: in vivo. As for the experimental part: (§2) For this, we selected 26 bis-acridines, mainly on the basis of the cytotoxic activity. We performed 34 series of experiments evaluating the anti-neoplasmic activity on xenografts in hairless mice against eleven neoplasms of human origin from the determination of the cytotoxic activity of bis-acridines (table 4). The tumours were injected subcutaneously to hairless mice of 5-weeks, female Crl:Nu-Foxnlnu, at a rate of 5×10^6 cells per mouse. After attaining a tumour of about 100 mm^3 or 200 mm^3 in depending on the neoplasm and its take this was 8 or even 30 days, and began therapy. On the day therapy was initiated, we randomised the animals and divided them into groups. Test groups were from 6 to 8 animals, and controls had from 8 to 14 animals. Each compound was tested at three differentiated doses.
(§3) The preparations were administered intravenously (i.v.) twice weekly for 4 weeks (thrice weekly for rapidly growing neoplasms). In several series, we used intraperitoneally (i.p.) administration in the same scheme. […] The therapeutic efficacy of the tested formulations was evaluated by measuring tumour size (length and width measurements of the tumour on the basis of the calculated tumour volume). Tumours were measured twice weekly for a period of about 30 days for fast-growing neoplasms, as well as about 60 days for the slow-growing neoplasms. The tumour volume in the treated groups compared with the control group. On this basis, inhibition of tumour growth was calculated using the following formula: Tumour growth inhibition TGI [%]=100−(ΔVT/ΔVC×100) Where ΔVT—is mean the tumour volume in animals in the group treated at the given day of treatment, minus the mean tumour volume in animals at the date of commencement of therapy. ΔVC is mean tumour volume in animals in the control group on a given day of treatment minus the average tumour volume of animals on the date of commencement of therapy. The results of the tests of anti-neoplasmic activity conducted in xenografts of human-origin neoplasms in mice are shown in Table 5.
(§4) The result above was accepted only in the case that the dose administered in all animals or more than half of the animals that survived to the end of the experiment. In addition, the evaluation was the day that the administration of the preparation was already completed: for the fast-growing neoplasms (eg. HCT116) this was in the days from 15 to 26, while for slow-growing neoplasms (eg. Panc 1) on a day from 34 to 60. […] In addition, the maximum inhibition of neoplasms could be identified in the day, in which there were no factors that could change the value TGI value.
(§5) Such factors may include: a significant decrease in body weight, the appearance of observable toxaemia, excessive rate of tumour growth: tumours in excess of 2000 mm^3 and all animals alive on that day.

In the next test the test system is HT-29. Description: Cytotoxic activity in vitro, SRB. In kind it is cell-based, human. As for the experimental part: as §1
Another test deals with DU 145. Description: Anti-neoplasmic activity against xenograft in hairless mice. Format: in vivo. Conditions: single 8 mg/kg. As for the experimental part:
as §2, §3, §4, §5

The next test has as its system UM-UC-3. Description: Cytotoxic activity in vitro, SRB. In kind it is cell-based, human. How it is done: as §1
The subject of a further test is H-460. Description: Cytotoxic activity in vitro, SRB. Format: cell-based, human. How it is done: as §1
In a further test the test system is H 460. Description: Anti-neoplasmic activity against xenograft in hairless mice. In kind it is in vivo. As for the experimental part: as §2, §3, §4, §5
For the next test, the system named is BXPC 3. Described as above. Format: in vivo. Conditions: series 25, i.v., single 20 mg/kg, total 160 mg/kg, day 29. As for the experimental part: as §2, §3, §4, §5
The test system of the next test is PC-3. As to the kind of experiment: Cytotoxic activity in vitro, SRB. Format: cell-based, human. How it is done:
as §1

Usually EC50 stands for the concentration at which the effect is half-maximal. Lower therefore signals higher potency in that assay. As to `O=c1c2ccccc2n2cnc3ccc(NCCNCCNCCNc4c5ccccc5nc5cccc([N+](=O)[O-])c45)c1c32` [C-2037], the EC50 was 0.086 µM with AsPC-1; 0.138 µM in the test with BxPC-3; 0.044 µM with Capan-2; 0.04 µM with DU-145; 0.102 µM with HCT-116; 0.082 µM in the test on MCF-7. Further, the EC50 in the test on MDA-MB-231 was 0.027 µM; in the test on MiaPaCa-2, 0.064 µM; in the test with PANC-1, 0.037 µM. Moreover, the “TGI [%] [100 − (ΔVT/ΔVC × 100]” value in the test with PANC 1 (series 17, i.v., single 4 mg/kg, total 16 mg/kg, day 39) is given as 60%.
Take `Cc1ccc(NCCNCCNc2c3ccccc3nc3cccc([N+](=O)[O-])c23)c2c(=O)c3ccccc3[nH]c12` [C-1965, 9-{N-[(4-methyl-9(10H)-acridono-1-yl)aminoethyl]ethylamino}-1′-nitroacridine]: the EC50 with DU-145 was determined as 0.243 µM; with HT-29, 0.138 µM; in the test on MDA-MB-231, 0.137 µM; with PANC-1, 0.212 µM. Also, the “TGI [%] [100 − (ΔVT/ΔVC × 100]” value in the test with DU 145 (series 1, i.p., total 40 mg/kg, day 35, *at least half of animals did not survive) is on record as 61* %.
For the compound `O=c1c2ccccc2n2nnc3ccc(NCCCN4CCN(CCCNc5c6ccccc6nc6cccc([N+](=O)[O-])c56)CC4)c1c32` [C-2048, 1-[3-(6H-[1,2,3]triazolo[4,5,1-de]-acridin-6-on-5-yl)aminopropyl]-4-[3′-(1′-nitroacridin-1-yl)-aminopropyl]piperazine], the EC50 with DU-145 worked out at 0.022 µM; with HCT-116, 0.041 µM; in the test on HT-29, 0.152 µM; with MCF-7, 0.103 µM; in the test with MDA-MB-231, 0.033 µM; in the test on UM-UC-3 it was 0.12 µM. Also, the “TGI [%] [100 − (ΔVT/ΔVC × 100]” value in the test on PANC 1 (series 30, i.v., single 4 mg/kg, total 24 mg/kg, day 52) is listed as 86%.
As for `Cc1ccc([N+](=O)[O-])c2c(NCCCNCCCNc3ccc(C)c4[nH]c5ccccc5c(=O)c34)c3ccccc3nc12` [C-2022, 9-{N-[(4-methyl-9(10H)-acridono-1-yl)aminopropyl]propylamino}-4′-methyl-1′-nitroacridine], the EC50 was 0.129 µM in the test with DU-145; 0.067 µM in the test on H-460; 0.085 µM in the test with HCT-116; 1.3 µM in the test on HT-29; 0.162 µM in the test with PANC-1; 0.105 µM in the test with UM-UC-3. For the same compound, the “TGI [%] [100 − (ΔVT/ΔVC × 100]” value in the test with H 460 (series 5, i.p., single 10 mg/kg, total 60 mg/kg, day 14) came out at 25%.
Turning to `Cc1ccc([N+](=O)[O-])c2c(NCCCN3CCN(CCCNc4ccc5ncn6c7ccccc7c(=O)c4c56)CC3)c3ccccc3nc12` [C-2050, 1-[3-(imidazo[4,5,1-de]-acridin-6-on-5-yl)aminopropyl]-4-[3′-(4′-methyl-1′-nitroacridin-1-yl)-aminopropyl]piperazine], the EC50 in the test on AsPC-1 worked out at 0.24 µM; in the test with BxPC-3, 0.351 µM; in the test with DU-145 it was 0.062 µM; with HCT-116 it was 0.045 µM; with MiaPaCa-2, 0.058 µM; with PANC-1, 0.065 µM. Moreover, the “TGI [%] [100 − (ΔVT/ΔVC × 100]” value is 40% in the test with BXPC 3; 64% in the test on PANC 1 (series 24, i.v., single 20 mg/kg, total 160 mg/kg, day 50); 64% in the test with PANC 1 (series 26, i.v., single 30 mg/kg, total 160 mg/kg, day 40).
As to `CN(CCCNc1c2ccccc2nc2cccc([N+](=O)[O-])c12)CCCNc1ccc([N+](=O)[O-])c2[nH]c3ccccc3c(=O)c12` [C-2026, 9-{N-[(4-nitro-9(10H)acridono-1-yl)aminopropyl]-N-methylaminopropylamino}-1′-nitroacridine], the EC50 worked out at 0.066 µM in the test with AsPC-1; 0.024 µM in the test with DU-145; 0.01 µM with H-460; 0.26 µM in the test on HCT-116; 0.067 µM in the test on HT-29; 0.695 µM in the test with MCF-7. For the same compound, the EC50 in the test with MDA-MB-231 came out at 0.028 µM; in the test on MiaPaCa-2, 0.103 µM; with PANC-1, 0.028 µM; with PC-3, 0.051 µM; in the test on UM-UC-3, 0.029 µM. Also, the “TGI [%] [100 − (ΔVT/ΔVC × 100]” value with H 460 (series 16, i.v., single 1 mg/kg, total 5 mg/kg, day 15) is 14%; in the test with H 460 (series 16, i.v., single 4 mg/kg, total 16 mg/kg, day 14, *at least half of animals did not survive) it was 35* %.
With `Cc1ccc([N+](=O)[O-])c2c(NCCCN3CCN(CCCNc4ccc([N+](=O)[O-])c5[nH]c6ccccc6c(=O)c45)CC3)c3ccccc3nc12` [C-2030, 1-[3-(4-nitro-9(10H)-acridono-1-yl)aminopropyl]-4-[3′-(4′-methyl-1′-nitroacridin-1-yl)-aminopropyl]piperazine], the EC50 in the test on DU-145 was 0.041 µM; with H-460, 0.04 µM; in the test with HCT-116, 0.083 µM; with MiaPaCa-2 it was 0.108 µM; in the test with PANC-1, 0.13 µM; with PC-3, 0.362 µM. This compound came in with an EC50 in the test with UM-UC-3 of 0.063 µM. Moreover, the “TGI [%] [100 − (ΔVT/ΔVC × 100]” value with H 460 (series 6, i.v., single 10 mg/kg, total 60 mg/kg, day 17, *at least half of animals did not survive) is 24* %.
As to “1-[3-(8-hydroxy-methylimidazo[4,5,1-de]-acridin-6-on-5-yl)aminopropyl]-4-[3′-(1′-nitroacridin-1-yl)-aminopropyl]piperazine [C-2051]”, the EC50 in the test on AsPC-1 was found to be 0.151 µM; in the test on BxPC-3 it was 0.152 µM; with DU-145 it was 0.024 µM; with HCT-116, 0.027 µM; in the test on MiaPaCa-2, 0.018 µM; in the test with PANC-1, 0.039 µM. In the test on PANC 1 (series 27, i.v., single 2 mg/kg, total 16 mg/kg, day 40, *at least half of animals did not survive), the “TGI [%] [100 − (ΔVT/ΔVC × 100]” value is 68* %.
With `Cc1ccc([N+](=O)[O-])c2c(NCCCN3CCN(CCCNc4ccc(C)c5[nH]c6ccccc6c(=O)c45)CC3)c3ccccc3nc12` [C-2017, 1-[3-(4-methyl-9(10H)-acridono-1-yl)aminopropyl]-1-[3′-(4′-methyl-1′-nitroacridin-1-yl)-aminopropyl]piperazine], the EC50 with DU-145 is 0.046 µM; with H-460, 0.04 µM; in the test on HCT-116, 0.047 µM; in the test with HT-29, 0.061 µM; with MDA-MB-231, 0.048 µM; with MiaPaCa-2 it was 0.067 µM. In addition, the “TGI [%] [100 − (ΔVT/ΔVC × 100]” value in the test on DU 145 (series 2, i.p., total 48 mg/kg, day 35) was found to be 25%; in the test with H 460 (series 5, i.p., single 5 mg/kg, total 30 mg/kg, day 14), 6%; with PANC 1 (series 31, i.v., single 15 mg/kg, total 120 mg/kg, day 51), 75%.

Source of the values: US10202349B2, “Asymmetric bis-acridines with antitumour activity and their uses” (POLITECHNIKA GDAŃSKA, priority 2015, dated 2019).
